Measured values from patent US20050276767A1, “Composition containing an oily phase and a naphthopyran dye, cosmetic treatment processes” (L'OREAL, priority 2002, published 2005).
Values belong to the molecule of their own block, whether it stands above or below them.

How the values were obtained:
Format in all cases: physicochemical
[1] = ΔE before/after UVA irradiation of dyes at 1% in a white lipstick base (Example 5); details: 1% by weight dye in white lipstick base; UVA 2 mW/cm^2 for two minutes
Procedure: The ΔE (before and after UV irradiation for 2 minutes) of various photochromic dyes according to the invention was determined, at 1% by weight in a white lipstick base comprising:
A composition comprising 1% of dye according to the invention and 99% of the above base is thus prepared.
(§1) The L, a and b measurements were performed on a Leneta brand contrast card of reference Form 1A Penopac, for a composition spread to a thickness of 50 microns.
(§2) The reflection measurements were performed using a Minolta 3700D spectrocolorimeter.
(§3) The initial trichromatic coordinates of the composition before irradiation (L0, a0 and b0) were thus determined.
(§4) The compositions were then subjected to a UV irradiation (flux of 2 mW/cm^2 of a UVA radiation) for two minutes and then, immediately after stopping the irradiation, the trichromatic coordinates after irradiation (L, a and b) were determined. Less than 5 seconds elapsed between the stopping of the irradiation and the determination of the new coordinates.
(§5) The ΔE was then calculated in the following manner: ΔE=[(L−L0)^2+(a−a0)^2+(b−b0)^2]^1/2

[2] = Solubility of the dye in various silicone oils, observed with the naked eye (Example 1)
Procedure: The term “soluble” means that the dyes form a uniform mixture, free of particles that are apparent to the naked eye, at 25° C. and 1 atmosphere, in a proportion of 0.05% by weight in the oily phase.
The solubility of a dye according to the invention in various silicone oils was studied. Several mixtures comprising 0.05% by weight of 3-phenyl-3-(4-piperidinophenyl)-6-morpholino-3H-naphtho[2,1-b]pyran (Reversacol Ruby from James Robinson) in various oils were thus prepared, and the mixture was then heated to 60° C. with stirring.

[3] = Visual colour change of the dye solution in phenylsilicone oil on UV (sunlight) irradiation (Example 2); details: 0.05% by weight in phenylsilicone oil DC556
Procedure: A solution comprising 0.05% by weight of 3-phenyl-3-(4-piperidinophenyl)-6-morpholino-3H-naphtho[2,1-b]pyran (Reversacol Ruby from James Robinson) in a phenylsilicone oil (DC556 from Dow Corning) was prepared. The mixture was then irradiated with UV (sunlight) for 2 minutes.

[4] = ΔE before/after UVA irradiation of wax-structured compositions, 50 micron film on contrast card, reflection (Examples 3 and 8)
Procedure: as §1, §2
The initial trichromatic coordinates of the composition before irradiation (L0, a0 and b0) were thus determined. The composition was then subjected to a UV irradiation (flux of 2 mW/cm^2 of a UVA radiation) for two minutes and then, immediately after stopping the irradiation, the trichromatic coordinates after irradiation (L, a and b) were determined. Less than 5 seconds elapsed between the stopping of the irradiation and the determination of the new coordinates.
The ΔE was then calculated in the following manner: ΔE=[(L−L0)^2+(a−a0)^2+(b−b0) ^2]^1/2
A composition was prepared, comprising: • 0.05% by weight of 3-phenyl-3-(4-piperidinophenyl)-6-morpholino-3H-naphtho[2,1-b]pyran (Reversacol Ruby from James Robinson), • 15% by weight of polyethylene wax (apolar wax), • qs 100% of phenylsilicone oil (DC556 from Dow Corning).
as §3
as §4, with “composition was” for “compositions were”
as §5
15% by weight of polyethylene wax (apolar wax) was added to the mixtures prepared in Example 6 (oils+0.05% by weight of Reversacol Ruby dye), and the trichromatic coordinates L, a and b were then measured, before and after irradiation with UV for 2 minutes (flux of 2 mW/cm^2 of UVA) on thin films of composition, 50 microns thick, poured onto a contrast card.
To do this, a Minolta 3700D spectrocolorimeter in reflection mode was used; less than 5 seconds elapsed between stopping the irradiation and determining the new coordinates.

[5] = Solvatochromism: ΔE′ of oil + dye mixture versus oil alone, transmission, no UV (Example 6); parameters: key: ΔE′ = √(ΔL²+Δa²+Δb²), oil alone vs oil+dye, transmission; details: without UV
Procedure: The trichromatic coordinates (Lh, ah and bh) of the oil alone and of the oil+dye mixture (Lm, am and bm) were thus determined, and the ΔE′ was calculated in the following manner: ΔE′=[Lh−Lm)^2+(ah−am)^2+(bh−bm)^2]^1/2.
To do this, a Minolta 3700D spectrocolorimeter in transmission mode was used, with a plastic cuvette (“cuvette walls+oil+optional dye” optical path length=1 cm).

[6] = ΔE of oil + dye mixtures after UVA irradiation (Example 7); parameters: key: ΔE = [(Lm′−Lm)^2+(am′−am)^2+(bm′−bm)^2]^1/2, before vs after UVA; details: UVA 2 mW/cm^2 for 2 minutes
Procedure: The mixtures prepared in Example 6 were irradiated with UV (flux of 2 mW/cm^2 of UVA) for 2 minutes.
The trichromatic coordinates of the mixture after irradiation (Lm′, am′ and bm′) were again determined, as in Example 2, and the ΔE was calculated in the following manner: ΔE=[(Lm′−Lm)^2+(am′−am)^2+(bm′−bm)^2]^1/2.
Less than 5 seconds elapsed between stopping the irradiation and determining the new coordinates.

[7] = 0.05% dye in Capric/caprylic acid triglyceride
[8] = 0.05% dye in Diisostearyl malate
[9] = 0.05% dye in Hydrogenated polyisobutene
[10] = 0.05% dye in Isononyl isononanoate
[11] = 0.05% dye in Tridecyl trimellitate

ΔE [1]: 51
Structure (SMILES): COc1ccc(C2(c3ccc(OC)cc3)C=Cc3c(cc(N4CCOCC4)c4ccccc34)O2)cc1 [3,3-di(4-methoxyphenyl)-6-morpholino-3H-naphtho-[2,1-b]pyran]

ΔE [1]: 53
Structure (SMILES): C1=CC(c2ccccc2)(c2ccc(N3CCOCC3)cc2)Oc2cc(N3CCOCC3)c3ccccc3c21 (stereo not drawn) [3-phenyl-3-(4-morpholinophenyl)-6-morpholino-3H-naphtho[2,1-b]pyran]

Dissolution at elevated temperature (60° C.) ([2]; 0.05% by weight dye in Phenyltrimethylsiloxytrisiloxane (20 cSt) DC556 from Dow Corning): Total dissolution
Dissolution at elevated temperature (60° C.) ([2]; 0.05% by weight dye in Polyphenyltrimethylsiloxydimethylsiloxane (1000 cSt) Belsil PDM 1000 from Wacker): Total dissolution
Coloration of the solution of the dye (solvatochromic effect) ([2]; in the phenylsilicones, not for the other oils): pink coloration
Dissolution in the other silicone-based media after cooling to room temperature ([2]; non-phenylated silicone media, room temperature): virtually undissolved
Dissolution at elevated temperature in non-phenylated oils ([2]; non-phenylated silicone oils, elevated temperature): dissolves poorly
Dissolution at elevated temperature in the phenylated oils ([2]; phenylated silicone oils, irrespective of viscosity, elevated temperature): complete
Dissolution in phenylsilicones after cooling to room temperature ([2]; phenylsilicones, room temperature): virtually complete dissolution
Initial coloration of the mixture before irradiation [3]: pink
Coloration after irradiation ([3]; UV (sunlight) for 2 minutes): strong orange-red
ΔE ([4]; 0.05% dye, 15% polyethylene wax, qs phenylsilicone oil DC556, UVA 2 mW/cm^2 for two minutes): 37.38
ΔE ([4]; 15% wax + 0.05% dye in Castor oil, UVA 2 mW/cm^2 for 2 minutes, 50 micron film): 26.75
ΔE ([4]; 15% wax + 0.05% dye in Diisostearyl malate, UVA 2 mW/cm^2 for 2 minutes, 50 micron film): 43.12
ΔE ([4]; 15% wax + 0.05% dye in Hydrogenated polyisobutene, UVA 2 mW/cm^2 for 2 minutes, 50 micron film): 18.36
ΔE ([4]; 15% wax + 0.05% dye in Isododecane, UVA 2 mW/cm^2 for 2 minutes, 50 micron film): 27.21
ΔE ([4]; 15% wax + 0.05% dye in Isononyl isononanoate, UVA 2 mW/cm^2 for 2 minutes, 50 micron film): 27.74
ΔE ([4]; 15% wax + 0.05% dye in Octyldodecanol, UVA 2 mW/cm^2 for 2 minutes, 50 micron film): 31.09
ΔE ([4]; 15% wax + 0.05% dye in Tridecyl trimellitate, UVA 2 mW/cm^2 for 2 minutes, 50 micron film): 31.98
ΔE ([4]; 15% wax + 0.05% dye in Triisononanoin, UVA 2 mW/cm^2 for 2 minutes, 50 micron film): 33.70
ΔE [1]: 49
ΔE′ of the oil + dye mixture [5, 7]: 12.4093
ΔE′ of the oil + dye mixture ([5]; 0.05% dye in Castor oil): 33.6278
ΔE′ of the oil + dye mixture [5, 8]: 12.9041
ΔE′ of the oil + dye mixture [5, 9]: 6.6920
ΔE′ of the oil + dye mixture ([5]; 0.05% dye in Isododecane): 4.2421
ΔE′ of the oil + dye mixture [5, 10]: 7.7386
ΔE′ of the oil + dye mixture ([5]; 0.05% dye in Octyldodecanol): 37.6049
ΔE′ of the oil + dye mixture [5, 11]: 14.2178
ΔE′ of the oil + dye mixture ([5]; 0.05% dye in Triisononanoin): 12.8122
ΔE [6, 7]: 23.70
ΔE ([6]; 0.05% dye in Castor oil): 19.02
ΔE [6, 8]: 38.79
ΔE [6, 9]: 17.69
ΔE ([6]; 0.05% dye in Isododecane): 19.17
ΔE [6, 10]: 25.47
ΔE ([6]; 0.05% dye in Octyldodecanol): 20.88
ΔE [6, 11]: 13.74
ΔE ([6]; 0.05% dye in Triisononanoin): 21.62
Structure (SMILES): C1=CC(c2ccccc2)(c2ccc(N3CCCCC3)cc2)Oc2cc(N3CCOCC3)c3ccccc3c21 (stereo not drawn) [Reversacol Ruby, 3-phenyl-3-(4-piperidinophenyl)-6-morpholino-3H-naphtho[2,1-b]pyran]
